In brackets after ≈: the same amount, converted by molar mass.
Key:
Test in all cases: Antibacterial assay, microtitration MIC (Test A)
Type in all cases: cell-based
[1] = system: E. coli EC-2549; settings: strain EC-2549; for MIC: Escherichia coli, EC2549, Gram Negative Bacteria, read-out: Minimum Inhibitory Concentrations E. coli EC-2549
Method: (§1) The compounds of the present invention were tested against an assortment of Gram-negative and Gram-positive organisms using standard microtitration techniques (Cohen et. al., Antimicrob., 1985;28:766; Heifetz, et. al., Antimicrob., 1974;6:124). The results of the evaluation are shown in Tables 1A and B, wherein “-” means no data.

[2] = system: M. catarrhalis BC-3531; settings: strain BC-3531; for MIC: Moraxella catarrhalis, BC3531, Gram Negative Bacteria, read-out: Minimum Inhibitory Concentrations M. catarrhalis BC-3531
Method: as §1

[3] = system: H. influenzae HI-3542; settings: strain HI-3542; for MIC: Haemophilus influenzae, HI3542, Gram Negative Bacteria, read-out: Minimum Inhibitory Concentrations H. influenzae HI-3542
Method: as §1

| SMILES | Minimum Inhibitory Concentrations E. coli EC-2549 ([1]; Gram Negative Bacteria) [µg/mL] | Minimum Inhibitory Concentrations M. catarrhalis BC-3531 ([2]; Gram Negative Bacteria) [µg/mL] | Minimum Inhibitory Concentrations H. influenzae HI-3542 ([3]; Gram Negative Bacteria) [µg/mL] | MIC [1] [mg/L] | MIC [2] [mg/L] | MIC [3] [mg/L] |
| --- | --- | --- | --- | --- | --- | --- |
| Cc1c(N2CCC(C(C)O)C2)c(F)cc2c(=O)c(C(=O)O)cn(C3CC3)c12 (stereo not drawn) [drawing 317] | 0.06 | 0.008 | 0.004 |  |  |  |
| COc1c(N2CCC(C(O)c3ccc(S(C)(=O)=O)o3)C2)c(F)cc2c(=O)c(C(=O)O)cn(C3CC3)c12 (stereo not drawn) [drawing 319] |  |  |  | 2 (≈ 3.84 µM) | 0.125 (≈ 0.24 µM) | 0.06 (≈ 0.115 µM) |
| O=C(O)c1cn(C2CC2)c2c(Cl)c(N3CCC(C(O)C4(CO)CC4)C3)c(F)cc2c1=O (stereo not drawn) [drawing 321] |  |  |  | 0.06 (≈ 0.133 µM) | 0.016 (≈ 0.0355 µM) | 0.008 (≈ 0.0177 µM) |
| COc1c(N2CCC(C(O)CO)C2)c(F)cc2c(=O)c(C(=O)O)cn(C3CC3)c12 (stereo not drawn) [drawing 322] |  |  |  | 0.03 (≈ 0.0738 µM) | 0.04 (≈ 0.0984 µM) | 0.015 (≈ 0.0369 µM) |
| Cc1c(N2CCC(C(O)CO)C2)c(F)cc2c(=O)c(C(=O)O)cn(C3CC3)c12 (stereo not drawn) [drawing 323] |  |  |  | 4 (≈ 10.2 µM) | 1 (≈ 2.56 µM) | 0.5 (≈ 1.28 µM) |
| O=C(O)c1cn(C2CC2)c2c(Cl)c(N3CCC(C(O)CO)C3)c(F)cc2c1=O (stereo not drawn) [drawing 324] |  |  |  | 0.06 (≈ 0.146 µM) | 0.016 (≈ 0.0389 µM) | 0.004 (≈ 0.00974 µM) |
| Nc1nc(-n2cc(C(=O)O)c(=O)c3cc(F)c(N4CCC(C(O)CO)C4)cc32)c(F)cc1F (stereo not drawn) [drawing 325] |  |  |  | 0.06 (≈ 0.129 µM) | 0.015 (≈ 0.0323 µM) | 0.004 (≈ 0.00861 µM) |
| Nc1nc(-n2cc(C(=O)O)c(=O)c3cc(F)c(N4CCC(C(O)CO)C4)c(Cl)c32)c(F)cc1F (stereo not drawn) [drawing 326] |  |  |  | 0.25 (≈ 0.501 µM) | 0.125 (≈ 0.251 µM) | 0.008 (≈ 0.016 µM) |
| COc1c(N2CCC(C3(O)CC3)C2)c(F)cc2c(=O)c(C(=O)O)cn(C3CC3)c12 (stereo not drawn) [drawing 327] |  |  |  | 0.25 (≈ 0.621 µM) | 0.03 (≈ 0.0745 µM) | 0.03 (≈ 0.0745 µM) |
| COc1c(N2CCC(C(O)C3(O)CC3)C2)c(F)cc2c(=O)c(C(=O)O)cn(C3CC3)c12 (stereo not drawn) [drawing 328] |  |  |  | 0.5 (≈ 1.16 µM) | 0.125 (≈ 0.289 µM) | 0.015 (≈ 0.0347 µM) |
| Cc1c(N2CCC(C(O)C(F)(F)F)C2)c(F)cc2c(=O)c(C(=O)O)cn(C3CC3)c12 (stereo not drawn) [drawing 329] |  |  |  | 0.5 (≈ 1.17 µM) | 0.03 (≈ 0.07 µM) | 0.06 (≈ 0.14 µM) |
| COc1c(N2CCC(C(O)C(F)(F)F)C2)c(F)cc2c(=O)c(C(=O)O)cn(C3CC3)c12 (stereo not drawn) [drawing 331] |  |  |  | 0.125 (≈ 0.281 µM) | 0.008 (≈ 0.018 µM) | 0.015 (≈ 0.0338 µM) |
| Nc1c(F)c(N2CCC(C(O)C(F)(F)F)C2)c(F)c2c1c(=O)c(C(=O)O)cn2C1CC1 (stereo not drawn) [drawing 332] |  |  |  | 0.06 (≈ 0.134 µM) | 0.008 (≈ 0.0179 µM) | 0.004 (≈ 0.00894 µM) |
| Nc1nc(-n2cc(C(=O)O)c(=O)c3cc(F)c(N4CCC(C(O)C(F)(F)F)C4)c(Cl)c32)c(F)cc1F (stereo not drawn) [drawing 333] |  |  |  | 1 (≈ 1.86 µM) | 0.125 (≈ 0.233 µM) | 0.06 (≈ 0.112 µM) |
| O=C(O)c1cn(C2CC2)c2nc(N3CCC(C(O)C(F)(F)F)C3)c(F)cc2c1=O (stereo not drawn) [drawing 334] |  |  |  | 0.125 (≈ 0.301 µM) | 0.016 (≈ 0.0385 µM) | 0.016 (≈ 0.0385 µM) |
| Cc1c(N2CCC(C(F)(F)CO)C2)c(F)cc2c(=O)c(C(=O)O)cn(C3CC3)c12 (stereo not drawn) [drawing 335] |  |  |  | 0.125 (≈ 0.305 µM) | 0.03 (≈ 0.0731 µM) | 0.015 (≈ 0.0366 µM) |
| Cc1c(N2CCC(C(O)C(C)(F)F)C2)c(F)cc2c(=O)c(C(=O)O)cn(C3CC3)c12 (stereo not drawn) [drawing 336] |  |  |  | 0.125 (≈ 0.295 µM) | 0.03 (≈ 0.0707 µM) | 0.03 (≈ 0.0707 µM) |
| COCC(O)C1CCN(c2c(F)cc3c(=O)c(C(=O)O)cn(C4CC4)c3c2C)C1 (stereo not drawn) [drawing 337] |  |  |  | 1 (≈ 2.47 µM) | 0.125 (≈ 0.309 µM) | 0.125 (≈ 0.309 µM) |
| Cc1c(N2CCC(C(O)(CO)C(F)(F)F)C2)c(F)cc2c(=O)c(C(=O)O)cn(C3CC3)c12 (stereo not drawn) [drawing 338] |  |  |  | 0.5 (≈ 1.09 µM) | 0.06 (≈ 0.131 µM) | 0.06 (≈ 0.131 µM) |
| CC(O)(CO)C1CCN(c2c(F)cc3c(=O)c(C(=O)O)cn(C4CC4)c3c2Cl)C1 (stereo not drawn) [drawing 339] |  |  |  | 0.125 (≈ 0.294 µM) | 0.03 (≈ 0.0706 µM) | 0.16 (≈ 0.377 µM) |
| COc1c(N2CCC(C)(C(O)CC(F)(F)F)C2)c(F)cc2c(=O)c(C(=O)O)cn(C3CC3)c12 (stereo not drawn) [drawing 374] |  |  |  | 0.125 (≈ 0.265 µM) | 0.03 (≈ 0.0635 µM) | 0.03 (≈ 0.0635 µM) |

| SMILES | Minimum Inhibitory Concentrations E. coli EC-2549 ([1]; Gram Negative Bacteria) [µg/mL] | Minimum Inhibitory Concentrations M. catarrhalis BC-3531 ([2]; Gram Negative Bacteria) [µg/mL] | Minimum Inhibitory Concentrations H. influenzae HI-3542 ([3]; Gram Negative Bacteria) [µg/mL] | MIC [1] [mg/L] | MIC [2] [mg/L] | MIC [3] [mg/L] |
| --- | --- | --- | --- | --- | --- | --- |
| COc1c(N2CCC(CO)(CO)C2)c(F)cc2c(=O)c(C(=O)O)cn(C3CC3)c12 [drawing 375] |  |  |  | 0.5 (≈ 1.23 µM) | 0.0125 (≈ 0.0308 µM) | 0.15 (≈ 0.369 µM) |
| O=C(O)c1cn(-c2ccc(F)cc2F)c2nc(N3C[C@@H](CO)[C@@H](CO)C3)c(F)cc2c1=O [drawing 379] |  |  |  | 0.5 (≈ 1.11 µM) | 0.25 (≈ 0.556 µM) | 0.03 (≈ 0.0668 µM) |
| Nc1nc(-n2cc(C(=O)O)c(=O)c3cc(F)c(N4C[C@@H](O)[C@@H](O)C4)nc32)c(F)cc1F [drawing 380] |  |  |  | 0.25 (≈ 0.572 µM) | 0.125 (≈ 0.286 µM) | 0.008 (≈ 0.0183 µM) |
| COc1c(N2C[C@@H](CO)[C@@H](CO)C2)c(F)c(N)c2c(=O)c(C(=O)O)cn(C3CC3)c12 [drawing 381] |  |  |  | 0.25 (≈ 0.593 µM) | 0.125 (≈ 0.297 µM) | 0.03 (≈ 0.0712 µM) |
| O=C(O)c1cn(C2CC2)c2c(Cl)c(N3C[C@@H](CO)[C@@H](CO)C3)c(F)cc2c1=O [drawing 382] |  |  |  | 0.06 (≈ 0.146 µM) | 0.03 (≈ 0.073 µM) | 0.004 (≈ 0.00974 µM) |
| Nc1nc(-n2cc(C(=O)O)c(=O)c3cc(F)c(N4C[C@@H](CO)[C@@H](CO)C4)c(Cl)c32)c(F)cc1F [drawing 383] |  |  |  | 0.5 (≈ 1 µM) | 0.25 (≈ 0.501 µM) | 0.008 (≈ 0.016 µM) |
| COc1c(N2C[C@@H](CO)[C@@H](CO)C2)c(F)cc2c(=O)c(C(=O)O)cn(C3CC3)c12 [drawing 384] |  |  |  | 0.125 (≈ 0.308 µM) | 0.015 (≈ 0.0369 µM) | 0.004 (≈ 0.00984 µM) |
| COc1c(N2C[C@H](CO)[C@@H](CO)C2)c(F)cc2c(=O)c(C(=O)O)cn(C3CC3)c12 [drawing 385] |  |  |  | 0.25 (≈ 0.615 µM) | 0.06 (≈ 0.148 µM) | 0.008 (≈ 0.0197 µM) |
| Cc1c(N2C[C@@H](CO)[C@@H](CO)C2)c(F)cc2c(=O)c(C(=O)O)cn(C3CC3)c12 [drawing 386] |  |  |  | 0.06 (≈ 0.154 µM) | 0.015 (≈ 0.0384 µM) | 0.001 (≈ 0.00256 µM) |
| COC[C@H]1CN(c2c(F)cc3c(=O)c(C(=O)O)cn(C4CC4)c3c2C)C[C@H]1CO [drawing 387] |  |  |  | 0.06 (≈ 0.148 µM) | 0.015 (≈ 0.0371 µM) | 0.008 (≈ 0.0198 µM) |
| COC[C@@H]1CN(c2c(F)cc3c(=O)c(C(=O)O)cn(C4CC4)c3c2C)C[C@@H]1COC [drawing 388] |  |  |  | 2 (≈ 4.78 µM) | 0.125 (≈ 0.299 µM) | 0.25 (≈ 0.597 µM) |
| COC[C@@H]1CN(c2c(F)cc3c(=O)c(C(=O)O)cn(C4CC4)c3c2C)C[C@@H]1CO [drawing 389] |  |  |  | 0.06 (≈ 0.148 µM) | 0.015 (≈ 0.0371 µM) | 0.008 (≈ 0.0198 µM) |
| CCOC[C@@H]1CN(c2c(F)cc3c(=O)c(C(=O)O)cn(C4CC4)c3c2C)C[C@@H]1CO [drawing 390] |  |  |  | 0.125 (≈ 0.299 µM) | 0.03 (≈ 0.0717 µM) | 0.03 (≈ 0.0717 µM) |
| CCCOC[C@@H]1CN(c2c(F)cc3c(=O)c(C(=O)O)cn(C4CC4)c3c2C)C[C@@H]1CO [drawing 391] |  |  |  | 0.25 (≈ 0.578 µM) | 0.03 (≈ 0.0694 µM) | 0.06 (≈ 0.139 µM) |
| CC(=O)OC[C@@H]1CN(c2c(F)cc3c(=O)c(C(=O)O)cn(C4CC4)c3c2C)C[C@@H]1COC(C)=O [drawing 392] |  |  |  | 0.5 (≈ 1.05 µM) | 0.06 (≈ 0.126 µM) | 0.125 (≈ 0.263 µM) |
| CCC(=O)OC[C@@H]1CN(c2c(F)cc3c(=O)c(C(=O)O)cn(C4CC4)c3c2C)C[C@@H]1COC(=O)CC [drawing 393] |  |  |  | 1 (≈ 1.99 µM) | 0.03 (≈ 0.0597 µM) | 0.5 (≈ 0.995 µM) |
| Cc1c(N2C[C@@H](COC(=O)C(C)C)[C@@H](COC(=O)C(C)C)C2)c(F)cc2c(=O)c(C(=O)O)cn(C3CC3)c12 [drawing 394] |  |  |  | 8 (≈ 15.1 µM) | 2 (≈ 3.77 µM) | 2 (≈ 3.77 µM) |
| Cc1c(N2C[C@@H](CCO)[C@@H](CCO)C2)c(F)cc2c(=O)c(C(=O)O)cn(C3CC3)c12 [drawing 395] |  |  |  | 0.125 (≈ 0.299 µM) | 0.06 (≈ 0.143 µM) | 0.015 (≈ 0.0358 µM) |
| COc1c(N2C[C@@H](CCO)[C@@H](CCO)C2)c(F)cc2c(=O)c(C(=O)O)cn(C3CC3)c12 [drawing 396] |  |  |  | 1 (≈ 2.3 µM) | 0.125 (≈ 0.288 µM) | 0.06 (≈ 0.138 µM) |
| O=C(O)c1cn(C2CC2)c2c(OC(F)F)c(N3C[C@@H](CCO)[C@@H](CCO)C3)c(F)cc2c1=O [drawing 397] |  |  |  | 1 (≈ 2.13 µM) | 0.125 (≈ 0.266 µM) | 0.06 (≈ 0.128 µM) |
